Earlier results as cited in patent US12622903B2, “Drug products for intranasal administration and uses thereof” (Summit Biosciences Inc., priority 2020, dated 2026).

Test system: opioid overdose

## C=CCN1CC[C@]23c4c5ccc(O)c4O[C@H]2C(=O)CC[C@@]3(O)[C@H]1C5 [naloxone, 17-allyl-4,5a-epoxy-3,14-dihydroxymorphinan-6-one]
DOPE Project participants
  participants reporting serious adverse effects: < 1%
Of 399 overdose events where naloxone was used, participant reports
  overdose events reported reversed: 89%
